Measured values as given in patent US10583112B2, “Benzo[b]furans as bromodomain inhibitors” (GlaxoSmithKline Intellectual Property (No. 2) Limited, priority 2016, dated 2020).

Target: T1, BRD4 BD2 (Homo sapiens, UniProt O60885, Y97A)
T1 construct: BRD4 (1-477) (Y97A) and (Y390A); made in house; host or cells: E. coli (pET15b vector)
Assay: BRD4 BD2 TR-FRET competition assay
Assay type: binding
Details: mean where stated, n given; read-out: pIC50 in the BRD4 BD2 TR-FRET assay (converted)
Protocol: Bromodomain binding was assessed utilising a time resolved fluorescent resonance energy transfer (TR-FRET) competition assay. […] Europium chelate, conjugated to an anti-6*His antibody, was utilised as the donor fluorophore in the TR-FRET pair.
In order to generate a TR-FRET signal, donor fluorophore is excited by a laser at λ337 nm, which subsequently leads to emission at λ618 nm.
In order to monitor differential binding to either BD1 or BD2, single residue mutations of key tyrosines to alanine were made in the acetyl lysine binding pockets. To validate this approach, a double residue mutant tandem domain protein was produced for each of the BET family members.
Final purification was completed by Superdex 200 prep grade size exclusion column. Purified protein was stored at −80° C. in 20 mM HEPES pH 7.5 and 100 mM NaCl.
All assay components were dissolved in an assay buffer composing of 50 mM HEPES pH7.4, 50 mM NaCl, 5% Glycerol, 1 mM DTT and 1 mM CHAPS. […] An equal volume of 3 nM of anti-6*His Europium chelate was added to all wells, followed by a further 30 minute incubation at room temperature. TR-FRET was detected using a Perkin Elmer Multimode plate reader, by exciting the donor fluorophore at λ337 nm and subsequently, after a delay of 50 μsecs, measuring emission of the donor and acceptor fluorophores at λ615 nm and λ665 nm, respectively.
cA four parameter curve fit of the following form was then applied: y=a+((b−a)/(1+(10^x/10^c)^d) • Where ‘a’ is the minimum, ‘b’ is the Hill slope, ‘c’ is the pIC50 and ‘d’ is the maximum.

IC50	Structure (SMILES)
1 to 100 µM	CNC(=O)c1cc(C(=O)N[C@@H]2C[C@H]2CCO)cc2c1O[C@@H](CF)[C@@H]2c1ccccc1 (mixture of isomers) [Example 196, (2R,3R)-2-(fluoromethyl)-N^5-((trans)-2-(2-hydroxyethyl)cyclopropyl)-N^7-methyl-3-phenyl-2,3-dihydrobenzofuran-5,7-dicarboxamide (diastereomeric mixture)]
1 to 100 µM	CNC(=O)c1cc(C(=O)N[C@H]2C[C@@H]2CCO)cc2c1O[C@@H](CF)[C@@H]2c1ccccc1 (mixture of isomers) [Example 197, 2R,3R)-2-(fluoromethyl)-N^5-((trans)-2-(2-hydroxyethyl)cyclopropyl)-N^7-methyl-3-phenyl-2,3-dihydrobenzofuran-5,7-dicarboxamide (diastereomeric mixture)]
1 to 100 µM	CNC(=O)c1cc(C(=O)NCCOC)cc2c1O[C@H](CO)[C@H]2c1cccc(OC)c1 (relative stereo) [Example 34, (2S*,3S*)-2-(Hydroxymethyl)-N^5-(2-methoxyethyl)-3-(3-methoxyphenyl)-N^7-methyl-2,3-dihydrobenzofuran-5,7-dicarboxamide]
1 to 100 µM	CNC(=O)c1cc(C(=O)NCCn2cnnc2)cc2c1O[C@H](CF)[C@H]2c1ccccc1 (relative stereo) [Example 133, (Trans)-N^5-(2-(4H-1,2,4-triazol-4-yl)ethyl)-2-(fluoromethyl)-N^7-methyl-3-phenyl-2,3-dihydrobenzofuran-5,7-dicarboxamide]
1 to 100 µM	CNC(=O)c1cc(C(=O)NCCCC2CCNCC2(F)F)cc2c1O[C@@H](C)[C@@H]2c1ccccc1 (single isomer, unassigned) [Example 198, (2S,3R)-N5-(3-((S*)-3,3-difluoropiperidin-4-yl)propyl)-N7,2-dimethyl-3-phenyl-2,3-dihydrobenzofuran-5,7-dicarboxamide]
1 to 100 µM	CNC(=O)c1cc(C(=O)NCC(C)O)cc2c1O[C@H](C)[C@H]2c1ccccc1 (stereo partly drawn) [Example 6, (2R,3S)—N^5-(2-Hydroxypropyl)-N^7,2-dimethyl-3-phenyl-2,3-dihydrobenzofuran-5,7-dicarboxamide]
1 to 100 µM	CNC(=O)c1cc(C(=O)NCC(C)O)cc2c1O[C@@H](C)[C@H]2c1ccccc1 (stereo partly drawn) [Example 7, (2S,3S)—N^5-(2-hydroxypropyl)-N^7,2-dimethyl-3-phenyl-2,3-dihydrobenzofuran-5,7-dicarboxamide]
1 to 100 µM	CNC(=O)c1cc(C(=O)N[C@H]2[C@@H]3COC[C@@H]32)cc2c1O[C@H](C)[C@H]2c1cccc(OCCO)c1 [Example 85, (2R,3S)—N^5-((1R,5S,6R)-3-Oxabicyclo[3.1.0]hexan-6-yl)-3-(3-(2-hydroxyethoxy)phenyl)-N^7,2-dimethyl-2,3-dihydrobenzofuran-5,7-dicarboxamide]
1 to 100 µM	CNC(=O)c1cc(C(=O)NC)c2c(c1)[C@@H](c1ccccc1)[C@H](C)O2 [Example 100, (2S,3R)-N^5,N^7,2-trimethyl-3-phenyl-2,3-dihydrobenzofuran-5,7-dicarboxamide]
1 to 100 µM	CCNC(=O)c1cc(C(=O)NC)c2c(c1)[C@@H](c1ccccc1)[C@H](C)O2 [Example 101, (2S,3R)-N^5-ethyl-N^7,2-dimethyl-3-phenyl-2,3-dihydrobenzofuran-5,7-dicarboxamide]
1 to 100 µM	CNC(=O)c1cc(C(=O)NC2CC2)cc2c1O[C@@H](C)[C@@H]2c1ccccc1 [Example 102, (2S,3R)-N^5-cyclopropyl-N^7,2-dimethyl-3-phenyl-2,3-dihydrobenzofuran-5,7-dicarboxamide]
1 to 100 µM	CNC(=O)c1cc(C(=O)NC2CC2)cc2c1O[C@H](C)[C@@H]2c1ccccc1 [Example 103, (2R,3R)-N^5-cyclopropyl-N^7,2-dimethyl-3-phenyl-2,3-dihydrobenzofuran-5,7-dicarboxamide]
1 to 100 µM	CNC(=O)c1cc(C(=O)NC2CC2)cc2c1O[C@@H](CO)[C@@H]2c1ccccc1 [Example 104, (2R,3R)-N^5-cyclopropyl-2-(hydroxymethyl)-N^7-methyl-3-phenyl-2,3-dihydrobenzofuran-5,7-dicarboxamide]
